Test [1] deals with Mycobacterium tuberculosis. Type of test: functional. To be noted: dose 15 mg/kg; route oral.
The subject of test [2] is Mycobacterium tuberculosis. The format is functional. To be noted: dose 10 mg/kg; route oral.
Test [3] concerns Mycobacterium tuberculosis. The format is functional. To be noted: dose 5 mg/kg; route oral.
Test [4] concerns Mycobacterium tuberculosis. The format is functional, Spleen. To be noted: dose 15 mg/kg; route oral.
In test [5] the test system is Mycobacterium tuberculosis. The format is functional, Spleen. To be noted: dose 10 mg/kg; route oral.
Test [6] concerns Mycobacterium tuberculosis. Type of test: functional, Spleen. To be noted: dose 5 mg/kg; route oral.

For `COc1nc2ccc(Br)cc2cc1[C@@H](c1ccccc1)[C@](O)(CCN(C)C)c1cccc(F)c1`, the CFU in test [1] amounted to 46; in test [2], 251; in test [3], 358. In addition, the log10cfu in test [1] is on record as 0.93; in test [2], 1.29; in test [3] it was 2.27; in test [4], 0.98; in test [5], 0.46; in test [6], 0.54.

Source of the values: ChEMBL document CHEMBL1143403, “Location of persisting mycobacteria in a Guinea pig model of tuberculosis revealed by r207910” (2007).
